Results as given in patent US9302999B2, “Substituted triazoles as herbicides” (E. I. DU PONT DE NEMOURS AND COMPANY, priority 2012, dated 2016).

Experiments:
Type in all cases: in vivo
[1] = system: barnyardgrass (Echinochloa crus-galli); assay: Test A pre-/postemergence: barnyardgrass; conditions: for Barnyardgrass plant response rating: Postemergence; for Plant response rating, Barnyardgrass: Preemergence
In short: (§1)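 Rating scale 0–100 (100 = complete control), visual, ~10 days after application in the greenhouse. Applications: preemergence directed soil spray; postemergence at 1–2 leaves.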

[2] = system: crabgrass, large (large crabgrass, Digitaria sanguinalis); assay: Test A pre-/postemergence: crabgrass, large; conditions: for Crabgrass, Large plant response rating: Postemergence; for Plant response rating, Crabgrass, Large: Preemergence
In short: as §1

[3] = system: foxtail, giant (giant foxtail, Setaria faberii); assay: Test A pre-/postemergence: foxtail, giant; conditions: for Foxtail, Giant plant response rating: Postemergence; for Plant response rating, Foxtail, Giant: Preemergence
In short: as §1

[4] = system: morningglory (Ipomoea spp.); assay: Test A pre-/postemergence: morningglory; conditions: for Morningglory plant response rating: Postemergence; for Plant response rating, Morningglory: Preemergence
In short: as §1

[5] = system: pigweed (Amaranthus retroflexus); assay: Test A pre-/postemergence: pigweed; conditions: for Pigweed plant response rating: Postemergence; for Plant response rating, Pigweed: Preemergence
In short: as §1

[6] = system: velvetleaf (Abutilon theophrasti); assay: Test A pre-/postemergence: velvetleaf; conditions: for Velvetleaf plant response rating: Postemergence; for Plant response rating, Velvetleaf: Preemergence
In short: as §1

[7] = system: wheat (Triticum aestivum); assay: Test A pre-/postemergence: wheat; conditions: for Wheat plant response rating: Postemergence; for Plant response rating, Wheat: Preemergence
In short: as §1

corn (Zea mays) = assay: Test A pre-/postemergence: corn; conditions: for Corn plant response rating: Postemergence; for Plant response rating, Corn: Preemergence
In short: as §1

rice (Oryza sativa) = assay: Test C flooded paddy test: rice; conditions: scale 0 to 100 (0 no effect, 100 complete control)
In short: (§2)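 Greenhouse plants treated at the 2-leaf stage by dosing the flood water (3 cm depth, maintained) were compared with controls after 13 to 15 days and rated 0 to 100, where 100 means complete control; a dash marks no test result.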

[8] = system: sedge, umbrella (small-flower umbrella sedge, Cyperus difformis); assay: Test C flooded paddy test: sedge, umbrella; conditions: scale 0 to 100 (0 no effect, 100 complete control)
In short: as §2

[9] = system: ducksalad (Heteranthera limosa); assay: Test C flooded paddy test: ducksalad; conditions: scale 0 to 100 (0 no effect, 100 complete control)
In short: as §2

[10] = system: barnyardgrass (Echinochloa crus-galli); assay: Test C flooded paddy test: barnyardgrass; conditions: scale 0 to 100 (0 no effect, 100 complete control)
In short: as §2

[11] = 125 g ai/ha, 0 to 100 scale, 0 is no effect, 100 is complete control
[12] = 500 g ai/ha, visual rating on 0 to 100 scale (0 no effect, 100 complete control), approximately ten days
[13] = 125 g ai/ha, 0 to 100 scale (0 no effect, 100 complete control)
[14] = 500 g ai/ha, 0 to 100 scale, 0 is no effect, 100 is complete control
[15] = Flood (flooded paddy test), 62 g ai/ha, visual rating after 13 to 15 days
[16] = Flood (flooded paddy test), 125 g ai/ha, visual rating after 13 to 15 days
[17] = Flood (flooded paddy test), 250 g ai/ha, visual rating after 13 to 15 days

## Cc1nn(-c2cccc(Cl)c2)nc1C(=O)c1cccc(C(F)(F)F)c1 [Compound 76]
[1]; [11]
  Barnyardgrass plant response rating: 0
[1]; [12]
  Barnyardgrass plant response rating: 20
[1]; [13]
  Plant response rating, Barnyardgrass: 0
[1]; [14]
  Plant response rating, Barnyardgrass: 0
[2]; [11]
  Crabgrass, Large plant response rating: 10
[2]; [12]
  Crabgrass, Large plant response rating: 30
[2]; [13]
  Plant response rating, Crabgrass, Large: 10
[2]; [14]
  Plant response rating, Crabgrass, Large: 40
[3]; [11]
  Foxtail, Giant plant response rating: 10
[3]; [12]
  Foxtail, Giant plant response rating: 20
[3]; [13]
  Plant response rating, Foxtail, Giant: 10
[3]; [14]
  Plant response rating, Foxtail, Giant: 80
[4]; [11]
  Morningglory plant response rating: 10
[4]; [12]
  Morningglory plant response rating: 20
[4]; [13]
  Plant response rating, Morningglory: 0
[4]; [14]
  Plant response rating, Morningglory: 0
[5]; [11]
  Pigweed plant response rating: 50
[5]; [12]
  Pigweed plant response rating: 60
[5]; [13]
  Plant response rating, Pigweed: 0
[5]; [14]
  Plant response rating, Pigweed: 20
[6]; [11]
  Velvetleaf plant response rating: 0
[6]; [12]
  Velvetleaf plant response rating: 10
[6]; [13]
  Plant response rating, Velvetleaf: 0
[6]; [14]
  Plant response rating, Velvetleaf: 0
[7]; [11]
  Wheat plant response rating: 0
[7]; [12]
  Wheat plant response rating: 20
[7]; [13]
  Plant response rating, Wheat: 0
[7]; [14]
  Plant response rating, Wheat: 0
Corn (Zea mays); [11]
  Corn plant response rating: 10
Corn (Zea mays); [12]
  Corn plant response rating: 20
Corn (Zea mays); [13]
  Plant response rating, Corn: 0
Corn (Zea mays); [14]
  Plant response rating, Corn: 0
Rice (Oryza sativa); [15]
  Plant response rating, Rice: 0
Rice (Oryza sativa); [16]
  Plant response rating, Rice: 0
Rice (Oryza sativa); [17]
  Plant response rating, Rice: 0
Rice (Oryza sativa); Flood, 31 g ai/ha
  Plant response rating, Rice: 0
[8]; [15]
  Plant response rating, Sedge, Umbrella: 0
[8]; [16]
  Plant response rating, Sedge, Umbrella: 0
[8]; [17]
  Plant response rating, Sedge, Umbrella: 0
[8]; Flood, 31 g ai/ha
  Plant response rating, Sedge, Umbrella: 0
[9]; [15]
  Plant response rating, Ducksalad: 0
[9]; [16]
  Plant response rating, Ducksalad: 0
[9]; [17]
  Plant response rating, Ducksalad: 0
[9]; Flood, 31 g ai/ha
  Plant response rating, Ducksalad: 0
[10]; [15]
  Plant response rating, Barnyardgrass: 0
[10]; [16]
  Plant response rating, Barnyardgrass: 0
[10]; [17]
  Plant response rating, Barnyardgrass: 0
[10]; Flood, 31 g ai/ha
  Plant response rating, Barnyardgrass: 0

## Cc1nn(-c2ccc(C(F)(F)F)cc2)nc1Oc1ccccc1Cl [Compound 82]
[1]; [11]
  Barnyardgrass plant response rating: 0
[1]; [12]
  Barnyardgrass plant response rating: 0
[1]; [13]
  Plant response rating, Barnyardgrass: 0
[1]; [14]
  Plant response rating, Barnyardgrass: 0
[2]; [11]
  Crabgrass, Large plant response rating: 0
[2]; [12]
  Crabgrass, Large plant response rating: 0
[2]; [13]
  Plant response rating, Crabgrass, Large: 0
[2]; [14]
  Plant response rating, Crabgrass, Large: 0
[3]; [11]
  Foxtail, Giant plant response rating: 0
[3]; [12]
  Foxtail, Giant plant response rating: 0
[3]; [13]
  Plant response rating, Foxtail, Giant: 0
[3]; [14]
  Plant response rating, Foxtail, Giant: 0
[4]; [11]
  Morningglory plant response rating: 0
[4]; [12]
  Morningglory plant response rating: 0
[4]; [13]
  Plant response rating, Morningglory: 0
[4]; [14]
  Plant response rating, Morningglory: 0
[5]; [11]
  Pigweed plant response rating: 0
[5]; [12]
  Pigweed plant response rating: 0
[5]; [13]
  Plant response rating, Pigweed: 0
[5]; [14]
  Plant response rating, Pigweed: 0
[6]; [11]
  Velvetleaf plant response rating: 0
[6]; [12]
  Velvetleaf plant response rating: 0
[6]; [13]
  Plant response rating, Velvetleaf: 0
[6]; [14]
  Plant response rating, Velvetleaf: 0
[7]; [11]
  Wheat plant response rating: 0
[7]; [12]
  Wheat plant response rating: 0
[7]; [13]
  Plant response rating, Wheat: 0
[7]; [14]
  Plant response rating, Wheat: 0
Corn (Zea mays); [11]
  Corn plant response rating: 0
Corn (Zea mays); [12]
  Corn plant response rating: 0
Corn (Zea mays); [13]
  Plant response rating, Corn: 0
Corn (Zea mays); [14]
  Plant response rating, Corn: 0
Rice (Oryza sativa); [16]
  Plant response rating, Rice: 0
Rice (Oryza sativa); [17]
  Plant response rating, Rice: 0
Rice (Oryza sativa); Flood, 31 g ai/ha
  Plant response rating, Rice: 0
Rice (Oryza sativa); Flood, 62 g ai/ha
  Plant response rating, Rice: 0
[8]; [16]
  Plant response rating, Sedge, Umbrella: 0
[8]; [17]
  Plant response rating, Sedge, Umbrella: 0
[8]; Flood, 31 g ai/ha
  Plant response rating, Sedge, Umbrella: 0
[8]; Flood, 62 g ai/ha
  Plant response rating, Sedge, Umbrella: 0
[9]; [16]
  Plant response rating, Ducksalad: 0
[9]; [17]
  Plant response rating, Ducksalad: 0
[9]; Flood, 31 g ai/ha
  Plant response rating, Ducksalad: 0
[9]; Flood, 62 g ai/ha
  Plant response rating, Ducksalad: 0
[10]; [16]
  Plant response rating, Barnyardgrass: 0
[10]; [17]
  Plant response rating, Barnyardgrass: 0
[10]; Flood, 31 g ai/ha
  Plant response rating, Barnyardgrass: 0
[10]; Flood, 62 g ai/ha
  Plant response rating, Barnyardgrass: 0

## Cc1nn(-c2ccc(C(F)(F)F)cc2)nc1Oc1ccc(C(F)(F)F)cc1 [Compound 83]
[1]; [11]
  Barnyardgrass plant response rating: 0
[1]; [12]
  Barnyardgrass plant response rating: 0
[1]; [13]
  Plant response rating, Barnyardgrass: 0
[1]; [14]
  Plant response rating, Barnyardgrass: 0
[2]; [11]
  Crabgrass, Large plant response rating: 0
[2]; [12]
  Crabgrass, Large plant response rating: 0
[2]; [13]
  Plant response rating, Crabgrass, Large: 0
[2]; [14]
  Plant response rating, Crabgrass, Large: 0
[3]; [11]
  Foxtail, Giant plant response rating: 0
[3]; [12]
  Foxtail, Giant plant response rating: 0
[3]; [13]
  Plant response rating, Foxtail, Giant: 0
[3]; [14]
  Plant response rating, Foxtail, Giant: 0
[4]; [11]
  Morningglory plant response rating: 0
[4]; [12]
  Morningglory plant response rating: 0
[4]; [13]
  Plant response rating, Morningglory: 0
[4]; [14]
  Plant response rating, Morningglory: 0
[5]; [11]
  Pigweed plant response rating: 0
[5]; [12]
  Pigweed plant response rating: 0
[5]; [13]
  Plant response rating, Pigweed: 0
[5]; [14]
  Plant response rating, Pigweed: 0
[6]; [11]
  Velvetleaf plant response rating: 0
[6]; [12]
  Velvetleaf plant response rating: 0
[6]; [13]
  Plant response rating, Velvetleaf: 0
[6]; [14]
  Plant response rating, Velvetleaf: 0
[7]; [11]
  Wheat plant response rating: 0
[7]; [12]
  Wheat plant response rating: 0
[7]; [13]
  Plant response rating, Wheat: 0
[7]; [14]
  Plant response rating, Wheat: 0
Corn (Zea mays); [11]
  Corn plant response rating: 0
Corn (Zea mays); [12]
  Corn plant response rating: 0
Corn (Zea mays); [13]
  Plant response rating, Corn: 0
Corn (Zea mays); [14]
  Plant response rating, Corn: 0
Rice (Oryza sativa); [16]
  Plant response rating, Rice: 20
Rice (Oryza sativa); [17]
  Plant response rating, Rice: 25
Rice (Oryza sativa); Flood, 31 g ai/ha
  Plant response rating, Rice: 10
Rice (Oryza sativa); Flood, 62 g ai/ha
  Plant response rating, Rice: 20
[8]; [16]
  Plant response rating, Sedge, Umbrella: 20
[8]; [17]
  Plant response rating, Sedge, Umbrella: 30
[8]; Flood, 31 g ai/ha
  Plant response rating, Sedge, Umbrella: 10
[8]; Flood, 62 g ai/ha
  Plant response rating, Sedge, Umbrella: 20
[9]; [16]
  Plant response rating, Ducksalad: 20
[9]; [17]
  Plant response rating, Ducksalad: 30
[9]; Flood, 31 g ai/ha
  Plant response rating, Ducksalad: 0
[9]; Flood, 62 g ai/ha
  Plant response rating, Ducksalad: 20
[10]; [16]
  Plant response rating, Barnyardgrass: 0
[10]; [17]
  Plant response rating, Barnyardgrass: 0
[10]; Flood, 31 g ai/ha
  Plant response rating, Barnyardgrass: 0
[10]; Flood, 62 g ai/ha
  Plant response rating, Barnyardgrass: 0
